Read-outs that look alike come from different tables or passages of the source.
Key:
[1] = target: Mcl-1 (Homo sapiens (Human), UniProt Q07820); experiment: Fluorescence polarization anisotropy (FPA) competition assay, FITC-Bak or FITC-Bim BH3 peptide; type: binding; details: read-out: Ki for Inhibition of Mcl-1 by FPA assay
[2] = tested on: H929 human cancer cell lines; experiment: Cellular viability / proliferation (Cell TiterGlo, 72 h); type: cell-based
How it was run: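 Top dose 50 μM, serially diluted 2-fold, applied one day after seeding (1,000 cells/well, 10% FBS), DMSO below 1%.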

[3] = Homo sapiens, NCI-H929, 72 h, read-out: GI50 on cellular proliferation of H929 human cancer cell lines, H929 cells, 72 h, Cell TiterGlo, 10% FBS
[4] = read-out: GI50 on cellular proliferation of H929 human cancer cell lines, H929 cells, 72 h, Cell TiterGlo, 10% FBS

Mcl-1, sequence (Q07820 172-327): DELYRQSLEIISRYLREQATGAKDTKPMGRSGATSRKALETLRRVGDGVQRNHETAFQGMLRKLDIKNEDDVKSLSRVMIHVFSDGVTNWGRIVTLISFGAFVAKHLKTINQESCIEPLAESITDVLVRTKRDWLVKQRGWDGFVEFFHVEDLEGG

| SMILES | Ki [1] | GI50 [2, 3] | GI50 [2, 4] |
| --- | --- | --- | --- |
| COc1ccnc(-c2ccc3c(c2)c(N2C[C@@H](C)n4c(c(CCCOc5cc(C)c(Cl)c(C)c5)c5ccc(Cl)c(-c6c(C)nn(C)c6C)c54)C2=O)cn3C)n1 [Example 464, (R)-7-Chloro-10-(3-(4-chloro-3,5-dimethylphenoxy)propyl)-2-(5-(4-methoxypyrimidin-2-yl)-1-methyl-1H-indol-3-yl)-4-methyl-6-(1,3,5-trimethyl-1H-pyrazol-4-yl)-3,4-dihydropyrazino[1,2-a]indol-1(2H)-one] | 3.5 nM | 480 nM | – |
| Cc1cc(OCCCc2c3n(c4c(-c5c(C)nc(CN6CCN(C)CC6)nc5C)c(Cl)ccc24)[C@H](C)CN(c2cn(C)c4ccc(C(=O)O)cc24)C3=O)cc(C)c1Cl [Example 396, (R)-3-(7-Chloro-10-(3-(4-chloro-3,5-dimethylphenoxy)propyl)-6-(4,6-dimethyl-2-((4-methylpiperazin-1-yl)methyl)pyrimidin-5-yl)-4-methyl-1-oxo-3,4-dihydropyrazino[1,2-a]indol-2(1H)-yl)-1-methyl-1H-indole-5-carboxylic acid] | 1.8 nM | < 200 nM | – |
| CCn1cc(C(=O)O)c2cccc(N3C[C@@H](C)n4c(c(CCCOc5cc(C)c(Cl)c(C)c5)c5ccc(Cl)c(-c6c(C)nn(C)c6C)c54)C3=O)c21 [Example 103, (R)-7-(7-Chloro-10-(3-(4-chloro-3,5-dimethylphenoxy)propyl)-4-methyl-1-oxo-6-(1,3,5-trimethyl-1H-pyrazol-4-yl)-3,4-dihydropyrazino[1,2-a]indol-2(1H)-yl)-1-ethyl-1H-indole-3-carboxylic acid] | < 1 nM | 480 nM | – |
| Cc1cc(OCCCc2c3n(c4c(-c5c(C)nn(C)c5C)c(Cl)ccc24)[C@H](C)CN(c2cn(CCN4CCOCC4)c4cc(C(=O)O)ccc24)C3=O)cc(C)c1Cl [Example 293, (R)-3-(7-chloro-10-(3-(4-chloro-3,5-dimethylphenoxy)propyl)-4-methyl-1-oxo-6-(1,3,5-trimethyl-1H-pyrazol-4-yl)-3,4-dihydropyrazino[1,2-a]indol-2(1H)-yl)-1-(2-morpholinoethyl)-1H-indole-6-carboxylic acid] | < 1 nM | – | 810 nM |
| Cc1cc(OCCCc2c3n(c4c(-c5c(C)nn(C)c5C)c(Cl)ccc24)[C@H](C)CN(c2ccc4oc(C(=O)O)cc4c2)C3=O)cc(C)c1Cl [Example 196, (R)-5-(7-Chloro-10-(3-(4-chloro-3,5-dimethylphenoxy)propyl)-4-methyl-1-oxo-6-(1,3,5-trimethyl-1H-pyrazol-4-yl)-3,4-dihydropyrazino[1,2-a]indol-2(1H)-yl)benzofuran-2-carboxylic acid] | < 1 nM | 3400 nM | – |
| Cc1cc(OCCCc2c3n(c4c(-c5c(C)nn(C)c5C)c(Cl)ccc24)[C@H](C)CN(c2cccc4cc(C(=O)O)n(CC5CCCO5)c24)C3=O)cc(C)c1Cl (stereo partly drawn) [Example 326, 7-((R)-7-Chloro-10-(3-(4-chloro-3,5-dimethylphenoxy)propyl)-4-methyl-1-oxo-6-(1,3,5-trimethyl-1H-pyrazol-4-yl)-3,4-dihydropyrazino[1,2-a]indol-2(1H)-yl)-1-((tetrahydrofuran-2-yl)methyl)-1H-indole-2-carboxylic acid] | < 1 nM | 590 nM | – |
| Cc1cc(OCCCc2c3n(c4c(-c5c(C)ncnc5C)c(Cl)ccc24)[C@H](C)CN(c2cccc4c2c(C(=O)O)cn4C)C3=O)cc(C)c1Cl [Example 252, 4-[(4R)-7-chloro-10-[3-(4-chloro-3,5-dimethyl-phenoxy)propyl]-6-(4,6-dimethylpyrimidin-5-yl)-4-methyl-1-oxo-3,4-dihydropyrazino[1,2-a]indol-2-yl]-1-methyl-indole-3-carboxylic acid] | 1.3 nM | 2000 nM | – |
| Cc1cc(OCCCc2c3n(c4c(-c5c(C)nc(CN(C)CCN(C)C)nc5C)c(Cl)ccc24)[C@H](C)CN(c2cn(C)c4ccc(C(=O)O)cc24)C3=O)cc(C)c1Cl [Example 448, (R)-3-(7-Chloro-10-(3-(4-chloro-3,5-dimethylphenoxy)propyl)-6-(2-(((2-(dimethylamino)ethyl)(methyl)amino)methyl)-4,6-dimethylpyrimidin-5-yl)-4-methyl-1-oxo-3,4-dihydropyrazino[1,2-a]indol-2(1H)-yl)-1-methyl-1H-indole-5-carboxylic acid] | 2.2 nM | 360 nM | – |
| Cc1cc(OCCCc2c3n(c4c(-c5c(C)nn(C)c5C)c(Cl)ccc24)[C@H](C)CN(c2coc4ccccc24)C3=O)cc(C)c1Cl (single isomer, unassigned) [Example 246] | 8.6 nM | – | 5300 nM |
| Cc1cc(OCCCc2c3n(c4c(-c5c(C)ncnc5C)c(Cl)ccc24)[C@H](C)CN(c2cccc4cc(C(=O)O)ccc24)C3=O)cc(C)c1Cl [Example 218, 5-[(4R)-7-chloro-10-[3-(4-chloro-3,5-dimethyl-phenoxy)propyl]-6-(4,6-dimethylpyrimidin-5-yl)-4-methyl-1-oxo-3,4-dihydropyrazino[1,2-a]indol-2-yl]naphthalene-2-carboxylic acid] | < 1 nM | < 200 nM | – |
| Cc1cc(OCCCc2c3n(c4c(-c5c(C)nn(C)c5C)c(Cl)ccc24)[C@H](C)CN(c2cccc4c(C(=O)O)cn(Cc5cccnc5)c24)C3=O)cc(C)c1Cl [Example 467, (R)-7-(7-Chloro-10-(3-(4-chloro-3,5-dimethylphenoxy)propyl)-4-methyl-1-oxo-6-(1,3,5-trimethyl-1H-pyrazol-4-yl)-3,4-dihydropyrazino[1,2-a]indol-2(1H)-yl)-1-(pyridin-3-ylmethyl)-1H-indole-3-carboxylic acid] | 1.3 nM | 1300 nM | – |
| COc1cc(C(=O)O)nc2c(N3C[C@@H](C)n4c(c(CCCOc5cc(C)c(Cl)c(C)c5)c5ccc(Cl)c(-c6c(C)nn(C)c6C)c54)C3=O)cccc12 [Example 239, (R)-8-(7-Chloro-10-(3-(4-chloro-3,5-dimethylphenoxy)propyl)-4-methyl-1-oxo-6-(1,3,5-trimethyl-1H-pyrazol-4-yl)-3,4-dihydropyrazino[1,2-a]indol-2(1H)-yl)-4-methoxyquinoline-2-carboxylic acid] | < 1 nM | 1800 nM | – |
| Cc1cc(N2C[C@@H](C)n3c(c(CCCOc4cc(C)c(Cl)c(C)c4)c4ccc(Cl)c(-c5c(C)nn(C)c5C)c43)C2=O)c2c(c1)c(C(=O)O)cn2C [Example 183, (R)-7-(7-chloro-10-(3-(4-chloro-3,5-dimethylphenoxy)propyl)-4-methyl-1-oxo-6-(1,3,5-trimethyl-1H-pyrazol-4-yl)-3,4-dihydropyrazino[1,2-a]indol-2(1H)-yl)-1,5-dimethyl-1H-indole-3-carboxylic acid] | < 1 nM | – | 360 nM |
| Cc1cc(N2C[C@@H](C)n3c(c(CCCOc4cc(C)c(Cl)c(C)c4)c4ccc(Cl)c(-c5c(C)ncnc5C)c43)C2=O)c2c(c1)cc(C(=O)O)n2C [Example 272, 7-[(4R)-7-chloro-10-[3-(4-chloro-3,5-dimethyl-phenoxy)propyl]-6-(4,6-dimethylpyrimidin-5-yl)-4-methyl-1-oxo-3,4-dihydropyrazino[1,2-a]indol-2-yl]-1,5-dimethyl-indole-2-carboxylic acid] | < 1 nM | 210 nM | – |
| Cc1cc(OCCCc2c3n(c4c(-c5c(C)nn(C)c5C)c(Cl)ccc24)CCCN(c2cc(C(=O)O)c4cn(CCN5CCOCC5)nc4c2)C3=O)cc(C)c1Cl [Example 12, 6-[8-Chloro-11-[3-(4-chloro-3,5-dimethyl-phenoxy)propyl]-1-oxo-7-(1,3,5-trimethylpyrazol-4-yl)-4,5-dihydro-3H-[1,4]diazepino[1,2-a]indol-2-yl]-2-(2-morpholinoethyl)indazole-4-carboxylic acid] | 1.2 nM | 8300 nM | – |
| Cc1cc(OCCCc2c3n(c4c(-c5c(C)nn(C)c5C)c(Cl)ccc24)[C@H](C)CN(c2cn(C)c4c(-c5nnn(C)n5)cccc24)C3=O)cc(C)c1Cl [Example 362, (R)-7-Chloro-10-(3-(4-chloro-3,5-dimethylphenoxy)propyl)-4-methyl-2-(1-methyl-7-(2-methyl-2H-tetrazol-5-yl)-1H-indol-3-yl)-6-(1,3,5-trimethyl-1H-pyrazol-4-yl)-3,4-dihydropyrazino[1,2-a]indol-1(2H)-one] | 1.7 nM | 970 nM | – |
| Cc1cc(OCCCc2c3n(c4c(-c5c(C)nn(C)c5C)c(Cl)ccc24)[C@H](C)CN(c2cccc4cc(C(=O)O)n(Cc5ncccn5)c24)C3=O)cc(C)c1Cl [Example 329, (R)-7-(7-Chloro-10-(3-(4-chloro-3,5-dimethylphenoxy)propyl)-4-methyl-1-oxo-6-(1,3,5-trimethyl-1H-pyrazol-4-yl)-3,4-dihydropyrazino[1,2-a]indol-2(1H)-yl)-1-(pyrimidin-2-ylmethyl)-1H-indole-2-carboxylic acid] | < 1 nM | 1100 nM | – |
| Cc1cc(OCCCc2c3n(c4c(-c5c(C)nn(C)c5C)c(Cl)ccc24)[C@H](C)CN(c2cn(C)c4ccc(-c5ccccn5)cc24)C3=O)cc(C)c1Cl [Example 389, (R)-7-Chloro-10-(3-(4-chloro-3,5-dimethylphenoxy)propyl)-4-methyl-2-(1-methyl-5-(pyridin-2-yl)-1H-indol-3-yl)-6-(1,3,5-trimethyl-1H-pyrazol-4-yl)-3,4-dihydropyrazino[1,2-a]indol-1(2H)-one] | < 1 nM | 1500 nM | – |
| Cc1cc(OCCCc2c3n(c4c(-c5c(C)nn(C)c5C)c(Cl)ccc24)[C@H](C)CN(c2nccc4cc(C(=O)O)ccc24)C3=O)cc(C)c1Cl [Example 264, 1-[(4R)-7-chloro-10-[3-(4-chloro-3,5-dimethyl-phenoxy)propyl]-4-methyl-1-oxo-6-(1,3,5-trimethylpyrazol-4-yl)-3,4-dihydropyrazino[1,2-a]indol-2-yl]isoquinoline-6-carboxylic acid] | < 1 nM | 560 nM | – |

Source: patent US11596639B2, “Substituted indole Mcl-1 inhibitors” (Vanderbilt University, priority 2016, dated 2023)
